These results are taken from the RepoRT retention time repository (doi:10.1021/acs.analchem.2c02893).

The nature of this series: RP, Thermo Scientific Acclaim RSLC 120 C18, 100 × 2.1 mm, 2.2 µm, 30 °C, 0.2 mL/min, estimated dead time 1.1 min; A: 90% water + 10% methanol + 0.01% formic acid + 5 mM ammonium formate, pH 3.61; B: methanol + 0.01% formic acid + 5 mM ammonium formate, pH 3.61; gradient (min/%B) 0/1 1/1 2/39 13/99.9 15/99.9 15.1/1 20.1/1. The note with it: stereoisomer not certain.

The structures appear in SMILES notation.

Regarding `CCCc1nc(C)c2c(=O)[nH]c(-c3cc(S(=O)(=O)N4CCCCC4)ccc3OCC)nn12` [Vardenafil-Pseudo], the LC retention time was 10.6 min.

On to `CCCc1nc(C)c2c(=O)[nH]c(-c3cc(S(=O)(=O)N4CCN(CC)CC4)ccc3OCC)nn12` [Vardenafil], for which the LC retention time was 8.11 min.

On to `c1cnc2cc3c(cc2n1)C1CNCC3C1` [Varenicline], for which the LC retention time was 3.63 min.

Consider `C=C(Cl)CSC(=S)N(CC)CC` [Vegadex (Sulfallate)], for which the LC retention time was 11.1 min.

`COc1ccc(C(CN)C2(O)CCCCC2)cc1` [Venlafaxine- D L-N N-Didesmethyl]: the LC retention time is 6.34 min.

Regarding `CNCC(c1ccc(O)cc1)C1(O)CCCCC1` [Venlafaxine-D L-N O-Didesmethyl], the LC retention time was 4.91 min.

With `CNCC(c1ccc(OC)cc1)C1(O)CCCCC1` (stereo not given) [Venlafaxine-N-Desmethyl (norvenlafaxine)], the LC retention time was 6.18 min.

Turning to `COc1ccc(C(C[N+](C)(C)[O-])C2(O)CCCCC2)cc1` (stereo not given) [Venlafaxine-N-oxide], the LC retention time was 6.94 min.

As to `CN(C)CC(c1ccc(O)cc1)C1(O)CCCCC1` (stereo not given) [Venlafaxine-O-Desmethyl (Desvenlafaxine)], the LC retention time was 4.76 min.

In the case of `COc1ccc(C(CN(C)C)C2(O)CCCCC2)cc1` (stereo not given) [Venlafaxine], the LC retention time was 6.14 min.

With `COc1ccc(CCNCCCC(C#N)(c2ccc(OC)c(OC)c2)C(C)C)cc1OC` (stereo not given) [Verapamil-Nor], the LC retention time was 6.96 min.

On to `COc1ccc(CCN(C)CCCC(C#N)(c2ccc(OC)c(OC)c2)C(C)C)cc1OC` (stereo not given) [Verapamil], for which the LC retention time is 7.03 min.

Turning to `CCCSC(=O)N(CCC)CCC` [Vernolate], the LC retention time was 11.5 min.

Consider `CCC12CCCN3CCc4c(n(c5ccccc45)C(O)(C(=O)OC)C1)C32` (stereo not given) [Vincamine], for which the LC retention time is 5.04 min.

As for `C=CC1(C)OC(=O)N(c2cc(Cl)cc(Cl)c2)C1=O` (stereo not given) [Vinclozolin], the LC retention time was 10.6 min.

As to `COc1ccc(C(=O)c2c(C)n(CCN3CCOCC3)c3ccccc23)cc1` [WIN-48-098], the LC retention time was 9.55 min.

With `Cc1c(C(=O)c2cccc3ccccc23)c2cccc3c2n1C(CN1CCOCC1)CO3` (stereo not given) [WIN-55-212-2], the LC retention time is 10.9 min.

Turning to `CC(=O)CC(c1ccccc1)c1c(O)c2ccccc2oc1=O` (stereo not given) [Warfarin], the LC retention time is 9.35 min.

Turning to `CC(F)CCCn1cc(C(=O)C2C(C)(C)C2(C)C)c2ccccc21` (stereo not drawn) [XLR-11 Isomer], the LC retention time was 11.6 min.

With `CC1(C)C(C(=O)c2cn(CCCCCF)c3ccccc23)C1(C)C` [XLR-11], the LC retention time was 11.9 min.

In the case of `CC1(C)C(C(=O)c2cn(CCCC(F)(F)F)c3ccccc23)C1(C)C` [XLR-12], the LC retention time is 12 min.

`CNC(=O)Oc1cc(C)cc(C)c1` [XMC (Group of peaks!)]: the LC retention time is 7.78 min.

For `CN(CCO)CC(O)Cn1cnc2c1c(=O)n(C)c(=O)n2C` (stereo not given) [Xanthinol], the LC retention time is 2.99 min.

On to `Cc1cccc(C)c1NC(=O)c1cc(S(N)(=O)=O)c(Cl)cc1O` [Xipamide], for which the LC retention time was 7.36 min.

As for `Cc1cc(C(C)(C)C)cc(C)c1CC1=NCCN1` [Xylometazoline], the LC retention time was 7.75 min.

Take `COC(=O)C1C(O)CCC2CN3CCc4c([nH]c5ccccc45)C3CC21` (stereo not given) [Yohimbine]: the LC retention time was 5.08 min.

For the molecule `CCN(C(C)=O)c1cccc(-c2ccnc3c(C#N)cnn23)c1` [Zaleplon], the LC retention time is 6.61 min.

On to `Cc1cn(C2CC(N=[N+]=[N-])C(CO)O2)c(=O)[nH]c1=O` (stereo not given) [Zidovudine], for which the LC retention time was 4.56 min.

`CN(C)CC=C(c1ccc(Br)cc1)c1cccnc1` [Zimelidine]: the LC retention time was 6.56 min.

Take `O=C1Cc2cc(CCN3CCN(c4nsc5ccccc45)CC3)c(Cl)cc2N1` [Ziprasidone]: the LC retention time was 8.03 min.
